In article PMC7523345 (Investigational new drugs, 2018):

Assay: Phase I dose escalation study: safety, tolerability, DLT and MTD
Type: in vivo

Cc1cccc2c1NC(=O)[C@@H](NC(=O)[C@H](CCC(F)(F)F)[C@H](CCC(F)(F)F)C(N)=O)N=C2c1cccc(F)c1 [BMS-986115]
Abdominal pain (drug related AE, all grades) (Arm B BIW 2 mg (N = 2)): 1 (50) n (%) | Blood creatinine increased (drug related AE, all grades) (Arm B BIW 2 mg (N = 2)): 0 n (%) | Colitis (drug related AE, Grade 3 and 4) (Arm B BIW 2 mg (N = 2)): 0 n (%) | Cough (drug related AE, Grade 3 and 4) (Arm B BIW 2 mg (N = 2)): 0 n (%) | Cough (drug related AE, all grades) (Arm B BIW 2 mg (N = 2)): 0 n (%) | Decreased Appetite (drug related AE, Grade 3 and 4) (Arm B BIW 2 mg (N = 2)): 0 n (%) | Decreased Appetite (drug related AE, all grades) (Arm B BIW 2 mg (N = 2)): 0 n (%) | Dehydration (drug related AE, Grade 3 and 4) (Arm B BIW 2 mg (N = 2)): 0 n (%) | Dehydration (drug related AE, all grades) (Arm B BIW 2 mg (N = 2)): 0 n (%) | Dermatitis acneiform (drug related AE, all grades) (Arm B BIW 2 mg (N = 2)): 0 n (%) | Diarrhoea (drug related AE, Grade 3 and 4) (Arm B BIW 2 mg (N = 2)): 1 (50) n (%) | Diarrhoea (drug related AE, all grades) (Arm B BIW 2 mg (N = 2)): 1 (50) n (%) | Dry mouth (drug related AE, all grades) (Arm B BIW 2 mg (N = 2)): 0 n (%) | Dry skin (drug related AE, all grades) (Arm B BIW 2 mg (N = 2)): 0 n (%) | Dysgeusia (drug related AE, all grades) (Arm B BIW 2 mg (N = 2)): 0 n (%) | Dyspepsia (drug related AE, all grades) (Arm B BIW 2 mg (N = 2)): 1 (50) n (%) | Dysphonia (drug related AE, all grades) (Arm B BIW 2 mg (N = 2)): 0 n (%) | Fatigue (drug related AE, Grade 3 and 4) (Arm B BIW 2 mg (N = 2)): 0 n (%) | Fatigue (drug related AE, all grades) (Arm B BIW 2 mg (N = 2)): 1 (50) n (%) | Flatulence (drug related AE, all grades) (Arm B BIW 2 mg (N = 2)): 0 n (%) | Hypocalcaemia (drug related AE, Grade 3 and 4) (Arm B BIW 2 mg (N = 2)): 0 n (%) | Hypocalcaemia (drug related AE, all grades) (Arm B BIW 2 mg (N = 2)): 0 n (%) | Hypokalaemia (drug related AE, Grade 3 and 4) (Arm B BIW 2 mg (N = 2)): 0 n (%) | Hypokalaemia (drug related AE, all grades) (Arm B BIW 2 mg (N = 2)): 0 n (%) | Hyponatraemia (drug related AE, Grade 3 and 4) (Arm B BIW 2 mg (N = 2)): 0 n (%) | Hyponatraemia (drug related AE, all grades) (Arm B BIW 2 mg (N = 2)): 0 n (%) | Hypophosphataemia (drug related AE, Grade 3 and 4) (Arm B BIW 2 mg (N = 2)): 1 (50) n (%) | Hypophosphataemia (drug related AE, all grades) (Arm B BIW 2 mg (N = 2)): 1 (50) n (%) | Ileus (drug related AE, Grade 3 and 4) (Arm B BIW 2 mg (N = 2)): 0 n (%) | Increased upper airway secretion (drug related AE, all grades) (Arm B BIW 2 mg (N = 2)): 0 n (%) | Laryngeal pain (drug related AE, all grades) (Arm B BIW 2 mg (N = 2)): 0 n (%) | Leucocytosis (drug related AE, Grade 3 and 4) (Arm B BIW 2 mg (N = 2)): 0 n (%) | Mouth ulceration (drug related AE, all grades) (Arm B BIW 2 mg (N = 2)): 0 n (%) | Nausea (drug related AE, Grade 3 and 4) (Arm B BIW 2 mg (N = 2)): 0 n (%) | Nausea (drug related AE, all grades) (Arm B BIW 2 mg (N = 2)): 1 (50) n (%) | Pruritus (drug related AE, Grade 3 and 4) (Arm B BIW 2 mg (N = 2)): 0 n (%) | Pruritus (drug related AE, all grades) (Arm B BIW 2 mg (N = 2)): 0 n (%) | Pulmonary embolism (drug related AE, Grade 3 and 4) (Arm B BIW 2 mg (N = 2)): 0 n (%) | Rash (drug related AE, all grades) (Arm B BIW 2 mg (N = 2)): 0 n (%) | Rash maculopapular (drug related AE, all grades) (Arm B BIW 2 mg (N = 2)): 0 n (%) | Sinusitis (drug related AE, all grades) (Arm B BIW 2 mg (N = 2)): 0 n (%) | Urticaria (drug related AE, Grade 3 and 4) (Arm B BIW 2 mg (N = 2)): 0 n (%) | Vision blurred (drug related AE, all grades) (Arm B BIW 2 mg (N = 2)): 0 n (%) | Vomiting (drug related AE, Grade 3 and 4) (Arm B BIW 2 mg (N = 2)): 0 n (%) | Vomiting (drug related AE, all grades) (Arm B BIW 2 mg (N = 2)): 0 n (%) | Weight decreased (drug related AE, all grades) (Arm B BIW 2 mg (N = 2)): 0 n (%) | No. of patients with DLTs (Arm B BIW 2 mg, 2 DLT evaluable patients): 0 | Abdominal distension (drug related AE, all grades) (Arm B BIW 4 mg (N = 2)): 1 (50) n (%) | Abdominal pain (drug related AE, Grade 3 and 4) (Arm B BIW 4 mg (N = 2)): 0 n (%) | Abdominal pain (drug related AE, all grades) (Arm B BIW 4 mg (N = 2)): 0 n (%) | Blood creatinine increased (drug related AE, all grades) (Arm B BIW 4 mg (N = 2)): 0 n (%) | Colitis (drug related AE, Grade 3 and 4) (Arm B BIW 4 mg (N = 2)): 0 n (%) | Cough (drug related AE, Grade 3 and 4) (Arm B BIW 4 mg (N = 2)): 0 n (%) | Cough (drug related AE, all grades) (Arm B BIW 4 mg (N = 2)): 0 n (%) | Decreased Appetite (drug related AE, Grade 3 and 4) (Arm B BIW 4 mg (N = 2)): 0 n (%) | Decreased Appetite (drug related AE, all grades) (Arm B BIW 4 mg (N = 2)): 0 n (%) | Dehydration (drug related AE, Grade 3 and 4) (Arm B BIW 4 mg (N = 2)): 0 n (%) | Dehydration (drug related AE, all grades) (Arm B BIW 4 mg (N = 2)): 0 n (%) | Dermatitis acneiform (drug related AE, all grades) (Arm B BIW 4 mg (N = 2)): 0 n (%) | Diarrhoea (drug related AE, Grade 3 and 4) (Arm B BIW 4 mg (N = 2)): 0 n (%) | Diarrhoea (drug related AE, all grades) (Arm B BIW 4 mg (N = 2)): 0 n (%) | Dry mouth (drug related AE, all grades) (Arm B BIW 4 mg (N = 2)): 0 n (%) | Dry skin (drug related AE, all grades) (Arm B BIW 4 mg (N = 2)): 0 n (%) | Dysgeusia (drug related AE, all grades) (Arm B BIW 4 mg (N = 2)): 1 (50) n (%) | Dyspepsia (drug related AE, all grades) (Arm B BIW 4 mg (N = 2)): 0 n (%) | Dysphonia (drug related AE, all grades) (Arm B BIW 4 mg (N = 2)): 0 n (%) | Fatigue (drug related AE, Grade 3 and 4) (Arm B BIW 4 mg (N = 2)): 0 n (%) | Fatigue (drug related AE, all grades) (Arm B BIW 4 mg (N = 2)): 1 (50) n (%) | Flatulence (drug related AE, all grades) (Arm B BIW 4 mg (N = 2)): 1 (50) n (%) | Hypocalcaemia (drug related AE, Grade 3 and 4) (Arm B BIW 4 mg (N = 2)): 0 n (%) | Hypocalcaemia (drug related AE, all grades) (Arm B BIW 4 mg (N = 2)): 0 n (%)
